In patent US9999222B2, “Herbicidal combination comprising azines” (BASF SE, priority 2014, dated 2018):
Several values for one entry are separate records, joined by “and”; a condition that tells them apart may be missing. Equal entries are not always repeated. Where two headings read alike, the source gives them in different places.

Tests used:
Test in all cases: Greenhouse test, pre-emergence treatment
AVEFA = format: in vivo, Avena fatua; details: for observed % activity: 20 DAT
Method in brief: (§1)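 Seeds were sown in loamy sand with about 3.0% humus, and compounds in water were sprayed immediately after sowing, alone or as combinations formulated as 10% emulsion concentrates. Plants grew under hoods until rooted, at 10-25 °C or 20-35 °C by species, for 2 to 4 weeks. Damage was scored 0-100 (100 = no emergence or complete destruction), and Colby expected values were E=X+Y−(X·Y/100).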

LOLMU = format: in vivo, Lolium multiflorum; details: Lolium multiflorum, pre-emergence, read-out: observed % activity; for inhibition at 8 g/ha: 8 g ai/ha; for inhibition at 16 g/ha: 16 g ai/ha
Method in brief: as §1

ALOMY = format: in vivo, Alopecurus myosuroides; details: Alopecurus myosuroides, pre-emergence, read-out: observed % activity; for inhibition at 8 g/ha: 8 g ai/ha; for inhibition at 16 g/ha: 16 g ai/ha
Method in brief: as §1

GALAP = format: in vivo, Galium aparine
Method in brief: as §1

EPHHL = format: in vivo, Euphorbia heterophylla; details: 20 DAT
Method in brief: as §1

PHACA = format: in vivo, Phalaris canariensis; details: for inhibition at 8 g/ha / inhibition at 16 g/ha: Phalaris canariensis, pre-emergence, read-out: observed % activity; for inhibition at 8 g/ha: 8 g ai/ha
Method in brief: as §1

COMBE = format: in vivo, Commelina benghalensis; details: 20 DAT
Method in brief: as §1

BRADC = format: in vivo, Brachiaria decumbens; details: Urochloa decumbens, pre-emergence, read-out: observed % activity; for inhibition at 16 g/ha: 16 g ai/ha
Excerpt: (§2) The culture containers used were plastic flowerpots containing loamy sand with approximately 3.0% of humus as the substrate. The seeds of the test plants were sown separately for each species.
(§3) For the pre-emergence treatment, the active ingredients, which had been suspended or emulsified in water, were applied directly after sowing by means of finely distributing nozzles. The containers were irrigated gently to promote germination and growth and subsequently covered with transparent plastic hoods until the plants had rooted. This cover caused uniform germination of the test plants, unless this had been impaired by the active ingredients.
(§4) Depending on the species, the plants were kept at 10-25° C. or 20-35° C., respectively.
(§5) The test period extended over 2 to 4 weeks. During this time, the plants were tended, and their response to the individual treatments was evaluated.
(§6) Evaluation was carried out using a scale from 0 to 100. 100 means no emergence of the plants, or complete destruction of at least the aerial moieties, and 0 means no damage, or normal course of growth. A moderate herbicidal activity is given at values of at least 60, a good herbicidal activity is given at values of at least 70, and a very good herbicidal activity is given at values of at least 85.
(§7) The respective stated components a and b, and if appropriate, c were formulated as a 10% by weight strength emulsion concentrate and, with addition of the amount of solvent system, introduced into the spray liquor used for applying the active compound.
(§8) In the examples, the solvent used was water.
(§9) In the examples below, using the method of S. R. Colby (1967) “Calculating synergistic and antagonistic responses of herbicide combinations”, Weeds 15, p. 22ff., the value E, which is expected if the activity of the individual active compounds is only additive, was calculated. E=X+Y−(X·Y/100) where • X=percent activity using active compound a at an application rate A; • Y=percent activity using active compound b at an application rate B; • E=expected activity (in %) by a+b at application rates A+B.
(§10) If the value found experimentally is higher than the value E calculated according to Colby, a synergistic effect is present.

GERPU = format: in vivo, Geranium pusillum; details: 20 DAT
Method in brief: as §1

KCHSC = format: in vivo, Kochia scoparia; details: 20 DAT
Method in brief: as §1

POLCO = format: in vivo, Polygonum convolvulus
Method in brief: as §1

SORHA = format: in vivo, Sorghum halepense; details: Sorghum halepense, pre-emergence, read-out: observed % activity; for inhibition at 8 g/ha: 8 g ai/ha; for inhibition at 16 g/ha: 16 g ai/ha
Excerpt: as §2, §3, §4, §5, §6, §7, §8, §9, §10

CC1(c2nc(N)nc(Nc3c(F)c(F)cc(F)c3F)n2)CCC1 [compound 8, 6-(1-methylcyclobutyl)-N4-(2,3,5,6-tetrafluorophenyl)-1,3,5-triazine-2,4-diamine]
observed % activity (AVEFA; 8 g ai/ha): 5% and 10%
observed % activity (AVEFA; 16 g ai/ha): 10%
inhibition at 8 g/ha (AVEFA; Avena fatua, pre-emergence, 192 h, 8 g ai/ha, 8 DAT, read-out: observed % activity): 0%
inhibition at 16 g/ha (AVEFA; Avena fatua, pre-emergence, 192 h, 16 g ai/ha, 8 DAT, read-out: observed % activity): 0%
inhibition at 8 g/ha (LOLMU; 192 h, 8 DAT): 30%
inhibition at 16 g/ha (LOLMU; 192 h, 8 DAT): 40%
inhibition at 8 g/ha (LOLMU; 480 h, 20 DAT): 30%
inhibition at 16 g/ha (LOLMU; 480 h, 20 DAT): 40%
inhibition at 8 g/ha (ALOMY; 192 h, 8 DAT): 50%
inhibition at 16 g/ha (ALOMY; 192 h, 8 DAT): 90%
inhibition at 8 g/ha (ALOMY; 480 h, 20 DAT): 55%
inhibition at 16 g/ha (ALOMY; 480 h, 20 DAT): 90%
observed % activity (GALAP; 8 g ai/ha, 20 DAT): 20%
inhibition at 16 g/ha (GALAP; Galium aparine, pre-emergence, 192 h, 16 g ai/ha, 8 DAT, read-out: observed % activity): 0%
observed % activity (EPHHL; 16 g ai/ha): 65%
inhibition at 8 g/ha (EPHHL; Euphorbia heterophylla, pre-emergence, 480 h, 8 g ai/ha, read-out: observed % activity): 45%
inhibition at 16 g/ha (EPHHL; Euphorbia heterophylla, pre-emergence, 480 h, 16 g ai/ha, read-out: observed % activity): 70%
observed % activity (PHACA; 16 g ai/ha, 20 DAT): 60%
inhibition at 8 g/ha (PHACA; 192 h, 8 DAT): 25%
inhibition at 16 g/ha (PHACA; 192 h, 16 g ai/ha, 8 DAT): 40%
inhibition at 8 g/ha (PHACA; 480 h, 20 DAT): 28%
inhibition at 16 g/ha (PHACA; 480 h, 16 g ai/ha, 20 DAT): 50%
observed % activity (COMBE; 8 g ai/ha): 50%
observed % activity (COMBE; 16 g ai/ha): 80%
inhibition at 8 g/ha (COMBE; Commelina benghalensis, pre-emergence, 480 h, 8 g ai/ha, read-out: observed % activity): 60%
inhibition at 16 g/ha (COMBE; Commelina benghalensis, pre-emergence, 480 h, 16 g ai/ha, read-out: observed % activity): 65%
inhibition at 16 g/ha (BRADC; 192 h, 8 DAT): 60%
inhibition at 8 g/ha (BRADC; 480 h, 8 g ai/ha, 20 DAT): 78%
inhibition at 16 g/ha (BRADC; 480 h, 20 DAT): 70%
observed % activity (GERPU; 8 g ai/ha): 20%
observed % activity (GERPU; 16 g ai/ha): 80%
inhibition at 16 g/ha (GERPU; Geranium pusillum, pre-emergence, 480 h, 16 g ai/ha, read-out: observed % activity): 60%
observed % activity (KCHSC; 8 g ai/ha): 70% and 80%
observed % activity (KCHSC; 16 g ai/ha): 80%
inhibition at 8 g/ha (KCHSC; Bassia scoparia, pre-emergence, 480 h, 8 g ai/ha, read-out: observed % activity): 90%
inhibition at 16 g/ha (KCHSC; Bassia scoparia, pre-emergence, 480 h, 16 g ai/ha, read-out: observed % activity): 85%
observed % activity (POLCO; 8 g ai/ha, 20 DAT): 0%
observed % activity (POLCO; 16 g ai/ha, 20 DAT): 70%
inhibition at 8 g/ha (POLCO; Fallopia convolvulus, pre-emergence, 192 h, 8 g ai/ha, 8 DAT, read-out: observed % activity): 65%
inhibition at 16 g/ha (POLCO; Fallopia convolvulus, pre-emergence, 480 h, 16 g ai/ha, 20 DAT, read-out: observed % activity): 80%
inhibition at 8 g/ha (SORHA; 192 h, 8 DAT): 90%
inhibition at 16 g/ha (SORHA; 192 h, 8 DAT): 90%
inhibition at 8 g/ha (SORHA; 480 h, 20 DAT): 90%
inhibition at 16 g/ha (SORHA; 480 h, 20 DAT): 90%
